# Assay results reported in publication PMC8333425, “Discovery of a dual Ras and ARF6 inhibitor from a GPCR endocytosis screen” (Nature Communications, 2021).
# Legend:
# Assay in all cases: KINOMEscan kinase binding assay
# [1] = biological target: T1, 384 kinases from the human genome (Homo sapiens, UniProt O00141); conditions: kinase SGK (Entrez SGK1)
# T1 construct: purchased Eurofin/DiscoverX
# Text: (§1) We reasoned that because internalizing AT1R and its targeting to intracellular compartments can support continued MAPK signaling, and since 21 inhibits receptor internalization, it should also impede to some extent ERK1/2 activation. […] Receptor-mediated ERK1/2 signaling can involve upstream kinases such as PKC, BRAF, and MEK1[35],[36]. […] To exclude other kinases potentially involved in ERK1/2 and Akt activation as targets of 21, we ran a kinase binding assay (KINOMEscan™) on 384 kinases from the human genome. Remarkably, a very high selectivity score S(10) of 0.008 was found (Supplementary Data 3).
# (§2) The chemical library used for initial screening was from Chembridge DiverSet™ (60,000 compounds), Maybridge HitFinder™ (16,000 compounds), Maybridge (selected, 16,000 compounds), SPECS (selected, 16000 compounds), Microsource Discovery Spectrum (2000 compounds), Biomol (natural products, 500 compounds), Prestwick (commercialized products, 1120 compounds), SIGMA LopacTM (1280 compounds) and internal collection (synthesized at Université de Montréal-IRIC, ~4000 compounds). Compounds were all assigned an Université de Montréal number (UM) for internal use. Screen was performed at IRIC HTS facility. KINOMEscan™ profiling was serviced by Eurofin/DiscoverX (San Diego, USA).
# (§3) Description of Additional Supplementary Files […]
# (§4) File Name: Supplementary Data 3
# (§5) Description: KINOMEscan results. Compound 21’s effect was tested on 384 kinases. Data represent kinases binding to their ligands in presence of 10 µM of 21, as compared to DMSO (100%). Results are from one experiment and represent the average of duplicates. Three kinases (FLT3, KIT, and PDGFRB) out of 384 were more than 90% affected (selectivity score S(10) of 0.008). […]
# [2] = biological target: T2, 384 kinases from the human genome (Homo sapiens, UniProt O14733); conditions: kinase MKK7 (Entrez MAP2K7)
# T2 construct: purchased Eurofin/DiscoverX
# Text: as §1, §2, §3, §4, §5
# [3] = biological target: T3, 384 kinases from the human genome (Homo sapiens, UniProt O14920); conditions: kinase IKK-beta (Entrez IKBKB)
# T3 construct: purchased Eurofin/DiscoverX
# T3 sequence (O14920 whole entry): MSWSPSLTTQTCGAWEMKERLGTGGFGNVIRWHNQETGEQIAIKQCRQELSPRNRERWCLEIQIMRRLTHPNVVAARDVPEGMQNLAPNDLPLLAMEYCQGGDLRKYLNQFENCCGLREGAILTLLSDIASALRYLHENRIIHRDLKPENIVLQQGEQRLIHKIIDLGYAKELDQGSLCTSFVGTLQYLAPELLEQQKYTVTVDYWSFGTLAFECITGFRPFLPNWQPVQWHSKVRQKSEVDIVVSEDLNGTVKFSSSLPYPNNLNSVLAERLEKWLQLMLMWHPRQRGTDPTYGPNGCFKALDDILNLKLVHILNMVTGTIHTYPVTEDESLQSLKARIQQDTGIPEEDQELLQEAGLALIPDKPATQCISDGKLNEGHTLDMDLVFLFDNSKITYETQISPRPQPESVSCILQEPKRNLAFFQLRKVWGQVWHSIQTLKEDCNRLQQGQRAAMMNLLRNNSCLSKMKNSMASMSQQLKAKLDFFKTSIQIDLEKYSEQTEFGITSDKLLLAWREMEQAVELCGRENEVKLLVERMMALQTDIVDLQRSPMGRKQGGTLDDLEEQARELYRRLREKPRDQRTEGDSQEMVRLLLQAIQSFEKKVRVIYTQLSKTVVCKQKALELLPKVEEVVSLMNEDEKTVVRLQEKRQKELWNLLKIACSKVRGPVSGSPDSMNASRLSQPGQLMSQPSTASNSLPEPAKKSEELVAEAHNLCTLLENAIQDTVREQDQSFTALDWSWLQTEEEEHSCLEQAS
# Text: as §1, §2, §3, §4, §5
# [4] = biological target: T4, 384 kinases from the human genome (Homo sapiens, UniProt O75914); conditions: kinase PAK3 (Entrez PAK3)
# T4 construct: purchased Eurofin/DiscoverX
# T4 sequence (O75914 whole entry): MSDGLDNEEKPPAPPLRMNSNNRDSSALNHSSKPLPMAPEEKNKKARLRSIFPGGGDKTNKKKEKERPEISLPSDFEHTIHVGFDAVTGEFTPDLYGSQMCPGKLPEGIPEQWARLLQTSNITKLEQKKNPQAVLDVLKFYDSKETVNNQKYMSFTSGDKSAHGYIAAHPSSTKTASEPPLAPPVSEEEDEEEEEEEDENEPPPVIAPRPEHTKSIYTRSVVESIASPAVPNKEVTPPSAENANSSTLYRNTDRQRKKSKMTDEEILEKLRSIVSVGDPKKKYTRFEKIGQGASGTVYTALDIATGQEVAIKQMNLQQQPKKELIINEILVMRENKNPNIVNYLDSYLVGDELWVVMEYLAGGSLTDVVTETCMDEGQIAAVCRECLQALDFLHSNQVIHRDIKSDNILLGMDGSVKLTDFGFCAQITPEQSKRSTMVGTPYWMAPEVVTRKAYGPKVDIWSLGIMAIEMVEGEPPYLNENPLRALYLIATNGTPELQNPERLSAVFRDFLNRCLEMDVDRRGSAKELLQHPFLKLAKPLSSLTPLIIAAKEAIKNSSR
# Text: as §1, §2, §3, §4, §5
# [5] = biological target: T5, 384 kinases from the human genome (Homo sapiens, UniProt P00533)
# T5 construct: purchased Eurofin/DiscoverX
# T5 sequence (P00533 25-1210): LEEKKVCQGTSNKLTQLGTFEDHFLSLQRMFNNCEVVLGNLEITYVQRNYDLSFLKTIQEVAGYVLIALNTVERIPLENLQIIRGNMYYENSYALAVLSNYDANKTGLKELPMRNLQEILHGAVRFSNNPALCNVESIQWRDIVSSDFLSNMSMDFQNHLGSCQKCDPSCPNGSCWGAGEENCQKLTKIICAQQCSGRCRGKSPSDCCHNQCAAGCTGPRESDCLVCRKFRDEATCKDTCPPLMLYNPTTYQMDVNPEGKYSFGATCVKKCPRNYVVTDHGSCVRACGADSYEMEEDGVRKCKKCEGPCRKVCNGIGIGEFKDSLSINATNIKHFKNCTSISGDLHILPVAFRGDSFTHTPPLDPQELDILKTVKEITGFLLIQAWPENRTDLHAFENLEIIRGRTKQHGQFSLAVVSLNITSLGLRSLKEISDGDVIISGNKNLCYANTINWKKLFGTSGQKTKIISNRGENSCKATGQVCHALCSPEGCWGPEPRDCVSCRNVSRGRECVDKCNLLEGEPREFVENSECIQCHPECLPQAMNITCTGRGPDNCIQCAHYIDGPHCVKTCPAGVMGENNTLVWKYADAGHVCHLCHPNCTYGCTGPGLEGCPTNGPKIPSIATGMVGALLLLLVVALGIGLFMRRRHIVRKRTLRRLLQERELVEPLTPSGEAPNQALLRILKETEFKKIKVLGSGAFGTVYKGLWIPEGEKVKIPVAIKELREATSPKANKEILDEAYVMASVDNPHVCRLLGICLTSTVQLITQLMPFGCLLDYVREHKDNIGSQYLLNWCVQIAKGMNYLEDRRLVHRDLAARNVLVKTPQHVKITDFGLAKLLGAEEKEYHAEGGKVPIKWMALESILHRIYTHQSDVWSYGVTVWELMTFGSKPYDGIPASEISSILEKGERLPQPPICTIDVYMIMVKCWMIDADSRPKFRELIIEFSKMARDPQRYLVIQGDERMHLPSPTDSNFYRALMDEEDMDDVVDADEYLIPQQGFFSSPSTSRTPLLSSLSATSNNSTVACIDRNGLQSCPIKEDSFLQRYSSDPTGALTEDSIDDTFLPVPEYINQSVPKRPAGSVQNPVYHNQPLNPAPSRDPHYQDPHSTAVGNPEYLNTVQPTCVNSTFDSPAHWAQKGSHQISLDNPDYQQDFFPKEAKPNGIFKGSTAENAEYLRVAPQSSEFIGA
# Text: as §1, §2, §3, §4, §5
# [6] = biological target: T6, 384 kinases from the human genome (Homo sapiens, UniProt P06239); conditions: kinase LCK (Entrez LCK)
# T6 construct: purchased Eurofin/DiscoverX
# Text: as §1, §2, §3, §4, §5
# [7] = biological target: T7, 384 kinases from the human genome (Homo sapiens, UniProt P21127); conditions: kinase CDC2L1 (Entrez CDK11B)
# T7 construct: purchased Eurofin/DiscoverX
# Text: as §1, §2, §3, §4, §5
# [8] = biological target: T8, 384 kinases from the human genome (Homo sapiens, UniProt P29320); conditions: kinase EPHA3 (Entrez EPHA3)
# T8 construct: purchased Eurofin/DiscoverX
# Text: as §1, §2, §3, §4, §5
# [9] = biological target: T9, 384 kinases from the human genome (Homo sapiens, UniProt P36894); conditions: kinase BMPR1A (Entrez BMPR1A)
# T9 construct: purchased Eurofin/DiscoverX
# Text: as §1, §2, §3, §4, §5
# [10] = biological target: T10, 384 kinases from the human genome (Homo sapiens, UniProt P45983); conditions: kinase JNK1 (Entrez MAPK8)
# T10 construct: purchased Eurofin/DiscoverX
# T10 sequence (P45983 whole entry): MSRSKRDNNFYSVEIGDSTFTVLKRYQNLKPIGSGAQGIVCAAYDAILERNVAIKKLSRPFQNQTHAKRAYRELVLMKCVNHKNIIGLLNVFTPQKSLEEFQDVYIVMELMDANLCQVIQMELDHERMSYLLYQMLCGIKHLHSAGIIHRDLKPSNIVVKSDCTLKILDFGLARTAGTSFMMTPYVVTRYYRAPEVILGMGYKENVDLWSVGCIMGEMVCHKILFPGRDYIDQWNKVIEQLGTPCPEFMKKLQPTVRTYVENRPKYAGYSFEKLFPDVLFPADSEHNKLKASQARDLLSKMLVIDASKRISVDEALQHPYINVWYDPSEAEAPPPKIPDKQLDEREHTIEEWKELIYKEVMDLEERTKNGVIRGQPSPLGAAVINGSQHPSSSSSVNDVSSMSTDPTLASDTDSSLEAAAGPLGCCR
# Text: as §1, §2, §3, §4, §5
# [11] = biological target: T11, 384 kinases from the human genome (Homo sapiens, UniProt P45984); conditions: kinase JNK2 (Entrez MAPK9)
# T11 construct: purchased Eurofin/DiscoverX
# T11 sequence (P45984 whole entry): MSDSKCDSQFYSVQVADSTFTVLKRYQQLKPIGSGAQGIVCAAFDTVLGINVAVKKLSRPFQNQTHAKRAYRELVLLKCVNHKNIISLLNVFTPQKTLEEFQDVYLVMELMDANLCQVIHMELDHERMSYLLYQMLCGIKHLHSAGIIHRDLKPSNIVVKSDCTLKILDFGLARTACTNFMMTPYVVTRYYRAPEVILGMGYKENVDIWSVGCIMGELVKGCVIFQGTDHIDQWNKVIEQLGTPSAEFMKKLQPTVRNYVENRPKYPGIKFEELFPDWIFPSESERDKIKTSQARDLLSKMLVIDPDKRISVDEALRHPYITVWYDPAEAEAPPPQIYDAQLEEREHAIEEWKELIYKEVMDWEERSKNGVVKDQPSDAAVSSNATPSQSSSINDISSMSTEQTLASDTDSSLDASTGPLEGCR
# Text: as §1, §2, §3, §4, §5
# [12] = biological target: T12, 384 kinases from the human genome (Homo sapiens, UniProt P48729); conditions: kinase CSNK1A1 (Entrez CSNK1A1)
# T12 construct: purchased Eurofin/DiscoverX
# Text: as §1, §2, §3, §4, §5
# [13] = biological target: T13, 384 kinases from the human genome (Homo sapiens, UniProt P49760); conditions: kinase CLK2 (Entrez CLK2)
# T13 construct: purchased Eurofin/DiscoverX
# Text: as §1, §2, §3, §4, §5
# [14] = biological target: T14, 384 kinases from the human genome (Homo sapiens, UniProt P57078); conditions: kinase RIPK4 (Entrez RIPK4)
# T14 construct: purchased Eurofin/DiscoverX
# Text: as §1, §2, §3, §4, §5
# [15] = biological target: T15, 384 kinases from the human genome (Homo sapiens, UniProt Q00536); conditions: kinase PCTK1 (Entrez CDK16)
# T15 construct: purchased Eurofin/DiscoverX
# Text: as §1, §2, §3, §4, §5
# [16] = biological target: T16, 384 kinases from the human genome (Homo sapiens, UniProt Q14012); conditions: kinase CAMK1 (Entrez CAMK1)
# T16 construct: purchased Eurofin/DiscoverX
# Text: as §1, §2, §3, §4, §5
# [17] = biological target: T17, 384 kinases from the human genome (Homo sapiens, UniProt Q15303); conditions: kinase ERBB4 (Entrez ERBB4)
# T17 construct: purchased Eurofin/DiscoverX
# Text: as §1, §2, §3, §4, §5
# [18] = biological target: T18, 384 kinases from the human genome (Homo sapiens, UniProt Q8IU85); conditions: kinase CAMK1D (Entrez CAMK1D)
# T18 construct: purchased Eurofin/DiscoverX
# Text: as §1, §2, §3, §4, §5
# [19] = biological target: T19, 384 kinases from the human genome (Homo sapiens, UniProt Q8IVW4); conditions: kinase CDKL3 (Entrez CDKL3)
# T19 construct: purchased Eurofin/DiscoverX
# Text: as §1, §2, §3, §4, §5
# [20] = biological target: T20, 384 kinases from the human genome (Homo sapiens, UniProt Q8IW41); conditions: kinase MAPKAPK5 (Entrez MAPKAPK5)
# T20 construct: purchased Eurofin/DiscoverX
# Text: as §1, §2, §3, §4, §5
# [21] = biological target: T21, 384 kinases from the human genome (Homo sapiens, UniProt Q8IYT8); conditions: kinase ULK2 (Entrez ULK2)
# T21 construct: purchased Eurofin/DiscoverX
# Text: as §1, §2, §3, §4, §5
# [22] = biological target: T22, 384 kinases from the human genome (Homo sapiens, UniProt Q8TF76); conditions: kinase HASPIN (Entrez GSG2)
# T22 construct: purchased Eurofin/DiscoverX
# Text: as §1, §2, §3, §4, §5
# [23] = biological target: T23, 384 kinases from the human genome (Homo sapiens, UniProt Q96BR1); conditions: kinase SGK3 (Entrez SGK3)
# T23 construct: purchased Eurofin/DiscoverX
# Text: as §1, §2, §3, §4, §5
# [24] = biological target: T24, 384 kinases from the human genome (Homo sapiens, UniProt Q9UIK4); conditions: kinase DAPK2 (Entrez DAPK2)
# T24 construct: purchased Eurofin/DiscoverX
# Text: as §1, §2, §3, §4, §5
# [25] = biological target: T25, 384 kinases from the human genome (Homo sapiens, UniProt Q9UQM7); conditions: kinase CAMK2A (Entrez CAMK2A)
# T25 construct: purchased Eurofin/DiscoverX
# Text: as §1, §2, §3, §4, §5
# [26] = biological target: T26, 384 kinases from the human genome (Homo sapiens, UniProt Q9Y5S2); conditions: kinase MRCKB (Entrez CDC42BPB)
# T26 construct: purchased Eurofin/DiscoverX
# T26 sequence (Q9Y5S2 whole entry): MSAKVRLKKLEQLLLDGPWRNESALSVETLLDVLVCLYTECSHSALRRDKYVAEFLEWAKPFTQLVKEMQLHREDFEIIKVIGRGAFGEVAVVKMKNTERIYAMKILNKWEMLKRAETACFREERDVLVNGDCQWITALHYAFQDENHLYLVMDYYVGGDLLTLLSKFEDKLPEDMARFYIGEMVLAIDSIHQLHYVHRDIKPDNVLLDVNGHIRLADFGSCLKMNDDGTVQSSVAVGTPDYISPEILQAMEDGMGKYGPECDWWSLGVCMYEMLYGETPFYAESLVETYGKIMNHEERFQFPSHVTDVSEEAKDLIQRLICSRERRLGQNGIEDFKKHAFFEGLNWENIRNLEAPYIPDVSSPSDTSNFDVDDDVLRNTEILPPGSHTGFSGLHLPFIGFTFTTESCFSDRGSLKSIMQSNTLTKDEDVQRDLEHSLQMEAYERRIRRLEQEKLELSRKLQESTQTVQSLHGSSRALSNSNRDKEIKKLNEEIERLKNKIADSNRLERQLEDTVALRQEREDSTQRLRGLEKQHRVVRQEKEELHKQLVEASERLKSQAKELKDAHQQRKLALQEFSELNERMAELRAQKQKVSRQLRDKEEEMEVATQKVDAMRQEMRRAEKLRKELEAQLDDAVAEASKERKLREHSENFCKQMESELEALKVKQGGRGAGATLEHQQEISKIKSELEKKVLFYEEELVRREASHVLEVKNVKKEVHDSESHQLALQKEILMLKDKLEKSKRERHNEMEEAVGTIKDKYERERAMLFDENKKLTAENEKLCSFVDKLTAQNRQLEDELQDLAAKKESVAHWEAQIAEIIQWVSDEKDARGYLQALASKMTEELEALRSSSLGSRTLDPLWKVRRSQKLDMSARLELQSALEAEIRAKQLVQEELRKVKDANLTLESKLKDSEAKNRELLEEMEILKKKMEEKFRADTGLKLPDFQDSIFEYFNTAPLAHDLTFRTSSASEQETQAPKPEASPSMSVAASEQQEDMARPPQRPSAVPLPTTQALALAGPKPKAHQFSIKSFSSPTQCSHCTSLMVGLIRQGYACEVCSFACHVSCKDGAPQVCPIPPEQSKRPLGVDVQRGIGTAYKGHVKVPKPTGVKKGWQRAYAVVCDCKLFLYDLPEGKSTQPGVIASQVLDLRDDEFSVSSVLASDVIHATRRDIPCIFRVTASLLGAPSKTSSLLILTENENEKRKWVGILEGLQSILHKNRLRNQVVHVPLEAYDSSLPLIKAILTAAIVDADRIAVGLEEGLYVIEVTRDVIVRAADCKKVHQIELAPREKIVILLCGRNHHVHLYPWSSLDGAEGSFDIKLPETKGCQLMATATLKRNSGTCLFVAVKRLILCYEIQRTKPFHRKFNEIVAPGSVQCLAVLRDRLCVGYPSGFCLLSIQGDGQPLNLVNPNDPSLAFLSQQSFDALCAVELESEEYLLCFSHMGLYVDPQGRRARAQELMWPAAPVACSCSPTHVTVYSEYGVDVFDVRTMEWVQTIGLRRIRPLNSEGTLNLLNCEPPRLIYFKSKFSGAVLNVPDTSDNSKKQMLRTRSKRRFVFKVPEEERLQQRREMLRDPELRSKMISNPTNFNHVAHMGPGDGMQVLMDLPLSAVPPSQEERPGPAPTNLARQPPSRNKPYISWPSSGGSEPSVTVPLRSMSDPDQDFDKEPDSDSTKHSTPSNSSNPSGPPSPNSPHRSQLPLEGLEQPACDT
# Text: as §1, §2, §3, §4, §5
smiles,measurement,setting,value
CC(C)C(=O)N1CCN(c2ccc(NC(=O)c3cc4ccccc4o3)cc2Cl)CC1 [Compound 21],Percent Control,[1],100%
same,Percent Control,[2],93%
same,Percent Control,[3],98%
same,Percent Control,[4],92%
same,binding to EGFR,[5]; 10 µM of 21,failed to bind
same,Percent Control,[5]; kinase EGFR (Entrez EGFR),89%
same,Percent Control,[6],97%
same,Percent Control,[7],100%
same,Percent Control,[8],91%
same,Percent Control,[9],79%
same,Percent Control,[10],63%
same,Percent Control,[11],70%
same,Percent Control,[12],88%
same,Percent Control,[13],100%
same,Percent Control,[14],87%
same,Percent Control,[15],96%
same,Percent Control,[16],95%
same,Percent Control,[17],91%
same,Percent Control,[18],94%
same,Percent Control,[19],100%
same,Percent Control,[20],98%
same,Percent Control,[21],95%
same,Percent Control,[22],98%
same,Percent Control,[23],91%
same,Percent Control,[24],100%
same,Percent Control,[25],100%
same,Percent Control,[26],94%
